Experimental data published in patent publication US8580843B2, “Use of diindolylmethane (DIM) compounds and derivatives as neuroprotective agents” (Colorado State University Research Foundation, priority 2008, dated 2013).

What was measured:
[1] = test system: primary striatal neurons co-cultured with activated astrocytes; experiment: Astrocyte-neuron co-culture: apoptosis of primary striatal neurons (caspase activity, Annexin V binding); assay type: cell-based, mouse; conditions: for Apoptosis in co-cultured striatal neurons (caspase activity and Annexin V-binding): astrocytes co-treated with 10 μM for 8 hours, six hours of co-culture, FIG. 6 C-D
Description: Astrocyte Neuron Co-Culture. Cells were isolated as described above and astrocytes grown to confluence on permeable cell culture inserts (BD Biosciences, San Jose, Calif.) prior to treatment. Astrocytes were then treated with MPTP (10 μM), TNF-α (10 pg/ml) and IFN-γ (1 ng/ml) in the presence or absence of DIM-C-pPhtBu (10 μM), Rosiglitazone (10 μM) AMT (25 nM), or DMSO vehicle control for 8 hours. Media was then removed, and the astrocytes washed three times with sterile PBS to prevent carryover of treatment medium to the neurons, and the inserts were placed directly in each well over cultured neurons. Astrocyte-containing inserts were removed following six hours of co-culture, and neuronal caspase activity and phosphatidylserine translocation were measured by widefield fluorescence microscopy using the general cell permeable fluorescent caspase substrate rhodamine 110, bis-(L-aspartic acid amide) and an Annexin V Alexa Fluor 680 conjugate, respectively. Images were acquired using a Zeiss 20× air PlanApochromat objective and at least 10 microscopic fields were examined per treatment group over three independent experiments.
The efficacy of DIM-C-pPhtBu in preventing astrocyte-dependent neuronal apoptosis was examined in FIG. 6. Astrocytes were grown to confluence in cell culture inserts that are permeable to small molecules but prevent direct cell-cell contact. Following treatment of astrocytes with MPTP and TNF-α/IFN-γ in the presence or absence of DIM-C-pPhtBu (10 μM), rosiglitazone (10 μM), the NOS2 inhibitor AMT (25 nM), or DMSO, astrocytes were washed with PBS and co-incubated directly above primary striatal neurons in neurobasal medium. Indices of neuronal apoptosis were then measured using live-cell fluorescence imaging of caspase activity (FIG. 6A) and Annexin V binding (FIG. 6B). […] The DMSO vehicle control had no suppressive effect.
Differing letters denote statistical significance (p<0.05).

Nos2 mRNA = experiment: Semi-quantitative real-time RT-PCR of Nos2 mRNA in primary astrocytes challenged with MPTP and TNF-α/IFN-γ; assay type: cell-based, mouse
Description: Primary Cell Isolation. Cortical astrocytes were isolated from day-1 old C57B1/6 or transgenic mouse pups according to procedures described previously (Aschner and Kimelberg, 1991), and purity confirmed through immunofluorescent staining using antibodies against GFAP and Iba1. Briefly, pups were euthanized by decapitation under isofluorane anesthesia and cortices (astrocytes) or striatum (neurons) rapidly dissected out, and meninges removed. Tissue was subject to digestion with Dispase (1.5 U/ml), and selection of astrocytes was performed by complete media change 24 hrs after plating to remove non-astroglial cell types by serum shock. This method routinely results in cultures that are approximately 99% pure astrocytes, with less than 1% contaminating microglial cells (Supplementary FIG. 1). Astrocyte cultures were maintained at 37° C. and 5% CO2 in minimum essential media supplemented with 10% heat-inactivated fetal bovine serum and a penicillin (0.001 mg/ml), streptomycin (0.002 mg/ml), and neomycin (0.001) antibiotic cocktail. Cell media was changed 24 hrs prior to all treatments. Primary neuronal cultures were seeded onto poly-L-lysine-coated 30 mm glass coverslips at 4×10^5 cells per well, and maintained in neurobasal media supplemented with 2 mM L-glutamine, a B27 supplement, and a penicillin (0.001 mg/ml), streptomycin (0.002 mg/ml), and neomycin (0.001) antibiotic cocktail. Neuronal culture media was changed 24 hours after isolation and every two days afterward, and culture purity confirmed through cell morphology and immunostaining against GAD65/67 (Supplementary FIG. 2). Neurons were used within two weeks of plating. All animal procedures were approved by the Colorado State University Institutional Animal Care and Use Committee, and were conducted in accordance with published NIH guidelines.
RT and Real-Time RT-PCR. […] RNA was isolated using the RNEasy Mini kit (Qiagen, Valencia, Calif.), and purity and concentration were determined using a Nanodrop ND 1000 spectrophotometer (NanoDrop Technologies, Wilmington, Del.). Following purification, 1 ug of RNA was used as template for reverse transcriptase (RT) reactions using the iScript RT kit (BioRad, Hercules Calif.). The resulting cDNA was immediately profiled for Nos2 gene expression (forward: 5′-TCACGCTTGGGTCTTGTT-3′ (SEQ ID NO:1); reverse: 5′-[…] -3′3′ (SEQ ID NO:2)) using β-Actin as a housekeeping gene (forward: 5′-[…]-3′3′ (SEQ ID NO:3); reverse: 5′-CGCTCGTTGCCAATACTG-3′3′ (SEQ ID NO:4)) according to the 2^−ΔΔCT method (Livak and Schmittgen, 2001).

NF-kB-regulated genes = experiment: qPCR array analysis of NF-kB-regulated transcripts in primary astrocytes; assay type: cell-based; conditions: astrocytes + MPTP and TNF/IFN; DIM-C-pPhOCH3 1 uM, DIM-C-pPhtBu concentration not given; FIG. 11(A)
Description: Expression of inflammatory genes in astrocytes is largely regulated through the NF-kB signaling pathway. Primary cultured astrocytes were treated with MPTP and TNF/IFN in the presence or absence DIM-C-pPhOCH3 (DIMS, 1 uM), DIM-C-pPhtBu (DIM4), rosiglitazone (Ro, 10 uM), or vehicle (DMSO) and subjected to qPCR array analysis of NF-kB-regulated transcripts (Superarray Biosciences). […] (n=4 biological replicates)

[2] = 10 μM, astrocytes + MPTP, TNF-α/IFN-γ, FIG. 2B
[3] = astrocytes + MPTP, TNF-α, IFN-γ, FIG. 7(B), concentration not given

SMILES | Apoptosis in co-cultured striatal neurons (caspase activity and Annexin V-binding) [1] | Suppression of Nos2 mRNA (Nos2 mRNA; [2]) | Suppression of Nos2 mRNA (Nos2 mRNA; [3]) | Lowest dose that suppressed Nos2 induction to levels statistically indistinguishable from saline-treated control astrocytes (Nos2 mRNA; primary astrocytes, MPTP + TNF-α/IFN-γ) | Suppression of MPTP and TNF-α/IFN-γ induced Nos2 mRNA expression, dose response (Nos2 mRNA; primary astrocytes, concentrations ranging from 1 to 100 μM, FIG. 2A) | Neuroinflammatory gene expression (TNF Receptor, Toll Receptor, Interleukin 1beta) (NF-kB-regulated genes) | Annexin V binding in neurons increased by MPTP and cytokine treatment ([1]; 1 uM on astrocytes for 24 hrs, then 6 hrs with primary striatal neurons, FIG. 10(A)) | Activation of astrocytes and subsequent neuronal apoptosis (quantitative Annexin V fluorescence) ([1]; 1 uM on astrocytes for 24 hrs, then 6 hrs with primary striatal neurons, FIG. 10(B)) | Suppression of Nos2 mRNA, dose response (Nos2 mRNA; concentrations ranging from 0.1 to 3 μM, astrocytes + MPTP, TNF-α, IFN-γ, FIG. 7(A))
CN(CCOc1ccc(CC2SC(=O)NC2=O)cc1)c1ccccn1 (stereo not shown) [rosiglitazone, 5-((4-(2-(methyl-2-pyridinylamino)ethoxy)phenyl)methyl)-2,4-thiazolidinedione, reference compound] | prevented | equivalent suppression of Nos2 to levels observed in saline-treated control astrocytes | equivalent suppression of Nos2 mRNA |  |  |  |  |  | 
CC(C)(C)c1ccc(C(c2c[nH]c3ccccc23)c2c[nH]c3ccccc23)cc1 [DIM-C-pPhtBu, 1,1-bis(3′-indolyl)-1-(p-t-butylphenyl)methane] | prevented | equivalent suppression of Nos2 to levels observed in saline-treated control astrocytes |  | 10 µM | dose-dependently suppressed | suppressed neuroinflammatory gene expression |  |  | 
COc1ccc(C(c2c[nH]c3ccccc23)c2c[nH]c3ccccc23)cc1 [DIM-C-pPhOCH3, 1,1-bis(3′-indolyl)-1-(p-methoxyphenyl)methane] |  |  | equivalent suppression of Nos2 mRNA |  |  | suppressed neuroinflammatory gene expression | inhibited | significantly reduced | dose-responsive suppression
